assay: Solubility in toluene; type: physicochemical; settings: 5-level grade A-E
Procedure: Each of the compounds of the present invention or comparative compounds (2% by mass, 1% by mass, 0.5% by mass, or 0.1% by mass each) was mixed with toluene (1 mL), heated to 100° C., and then left to stand for 30 minutes at room temperature. […] For practical use, the compound needs to be evaluated to be A, B, C, or D. The compound preferably needs to be evaluated to be A, B, or C, more preferably needs to be evaluated to be A or B, and particularly preferably needs to be evaluated to be A.
E: Precipitation occurred at 0.1% by mass.

| SMILES | Solubility |
| --- | --- |
| CCCCCCCC/C=C/c1ccc2c(c1)sc1c2ccc2c3ccc(/C=C/CCCCCCCC)cc3sc21 [Compound example 298] | B (Precipitation did not occur at 1% by mass but occurred at 2% by mass.) |
| CCCCCCCCCCCCCCCCCCc1ccc2c(c1)sc1c2ccc2c3ccc(CCCCCCCCCCCCCCCCCC)cc3sc21 [Compound example 16] | B (Precipitation did not occur at 1% by mass but occurred at 2% by mass.) |
| c1ccc(-c2cccc(-c3ccc4sc5c(ccc6c7cc(-c8cccc(-c9ccccc9)c8)ccc7sc65)c4c3)c2)cc1 [compound 3, reference compound] | E (Precipitation occurred at 0.1% by mass.) |
| CCCCCCCCCCCCc1ccc2c(c1)sc1c2ccc2c3ccccc3sc21 [Compound example 358] | B (Precipitation did not occur at 1% by mass but occurred at 2% by mass.) |
| CCCCCCCCCCCCc1ccc(-c2ccc3c(c2)sc2c3ccc3c4ccccc4sc32)s1 [Compound example 386] | B (Precipitation did not occur at 1% by mass but occurred at 2% by mass.) |
| Cc1ccc2c(c1)sc1c2ccc2c3ccc(C)cc3sc21 [comparative compound 2, reference compound] | E (Precipitation occurred at 0.1% by mass.) |
| CCCCCCCCc1ccc2c(c1)oc1c2ccc2c3ccc(CCCCCCCC)cc3oc21 [Compound example 416] | C (Precipitation did not occur at 0.5% by mass but occurred at 1% by mass.) |
| CCCCCCCCc1ccc2sc3c(ccc4c5cc(CCCCCCCC)ccc5sc43)c2c1 [Compound example 396] | B (Precipitation did not occur at 1% by mass but occurred at 2% by mass.) |
| c1ccc2c(c1)sc1c2ccc2c3cccc(-c4ccc5c6ccccc6c6ccccc6c5c4)c3sc21 [comparative compound 6, reference compound] | E (Precipitation occurred at 0.1% by mass.) |
| c1ccc(-c2ccc3sc4c5sc6ccc(-c7ccccc7)cc6c5c(-c5ccccc5)c(-c5ccccc5)c4c3c2)cc1 [compound 4, reference compound] | E (Precipitation occurred at 0.1% by mass.) |
| CCCCCCC#Cc1ccc2c(c1)sc1c2ccc2c3ccc(C#CCCCCCC)cc3sc21 [Compound example 310] | B (Precipitation did not occur at 1% by mass but occurred at 2% by mass.) |
| CCCCCCCCc1ccc2cc3c(cc2c1)sc1c3ccc2c3cc4ccc(CCCCCCCC)cc4cc3sc21 [Compound example 20] | B (Precipitation did not occur at 1% by mass but occurred at 2% by mass.) |
| CCCCCCCCCCCCc1ccc2cc3c(cc2c1)sc1c3ccc2c3cc4ccc(CCCCCCCCCCCC)cc4cc3sc21 [Compound example 24] | B (Precipitation did not occur at 1% by mass but occurred at 2% by mass.) |
| CCCCCCCCc1ccc(-c2ccc3c(c2)sc2c3ccc3c4ccc(-c5ccc(CCCCCCCC)s5)cc4sc32)s1 [Compound example 62] | B (Precipitation did not occur at 1% by mass but occurred at 2% by mass.) |
| CCCCCCCCCCCCc1ccc(-c2ccc3c(c2)sc2c3ccc3c4ccccc4sc32)cc1 [Compound example 372] | B (Precipitation did not occur at 1% by mass but occurred at 2% by mass.) |
| CCCCCCCCCCCCc1ccc2cc3c(cc2c1)sc1c3ccc2c3ccc(CCCCCCCCCCCC)cc3sc21 [Compound example 344] | B (Precipitation did not occur at 1% by mass but occurred at 2% by mass.) |
| CCCCCc1ccc2c(c1)sc1c2ccc2c3ccc(CCCCC)cc3sc21 [Compound example 3] | A (Precipitation did not occur at 2% by mass.) |
| CCCc1ccc2c(c1)sc1c2ccc2c3ccc(CCC)cc3sc21 [Compound example 1] | B (Precipitation did not occur at 1% by mass but occurred at 2% by mass.) |
| CCCCCCCCOc1ccc2c(c1)sc1c2ccc2c3ccc(OCCCCCCCC)cc3sc21 [Compound example 326] | B (Precipitation did not occur at 1% by mass but occurred at 2% by mass.) |
| CCCCCCCCCCCCc1ccc2c(c1)sc1c2ccc2c3ccc(CCCCCCCCCCCC)cc3sc21 [Compound example 10] | A (Precipitation did not occur at 2% by mass.) |
| C[Si](C)(C)C#Cc1c(C#C[Si](C)(C)C)c2c3ccc(-c4cccs4)cc3sc2c2sc3cc(-c4cccs4)ccc3c12 [Compound example 427] | D (Precipitation did not occur at 0.1% by mass but occurred at 0.5% by mass.) |
| CCCCCCCCc1ccc(-c2ccc3c(c2)sc2c3ccc3c4ccc(-c5ccc(CCCCCCCC)cc5)cc4sc32)cc1 [Compound example 34] | B (Precipitation did not occur at 1% by mass but occurred at 2% by mass.) |
| CCCCCCCCc1ccc2c(c1)sc1c2ccc2c3ccc(CCCCCCCC)cc3sc21 [Compound example 6] | A (Precipitation did not occur at 2% by mass.) |
| CCCCC(CC)Cc1ccc2c(c1)sc1c2ccc2c3ccc(CC(CC)CCCC)cc3sc21 (stereo not shown) [Compound example 407] | A (Precipitation did not occur at 2% by mass.) |
| c1ccc2c(c1)sc1c2ccc2c3ccccc3sc21 [comparative compound 1, reference compound] | E (Precipitation occurred at 0.1% by mass.) |
